#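 Protocol summary: plate cells (96-well), add compound at 5 concentrations, incubate 48 h, interpolate endpoints linearly. At the GI50, growth is halved.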 Calls of active or inactive are those of the source. Cut-off read from the data, not from the text of the source: active = GI50 up to about 1.1 µM and inactive = higher.
# Assays:
# Experiment in all cases: inhibition of tumour cell growth, NCI panel, 48 h
# [1] = test system: SK-MEL-5
# [2] = test system: TK-10
# [3] = test system: NCI-H23
# [4] = test system: ACHN
# [5] = test system: HCC 2998
# [6] = test system: CCRF-CEM
# [7] = test system: MCF7
# [8] = test system: NCI-H460
# [9] = test system: RPMI-8226
# [10] = test system: UACC-257
# [11] = test system: 786-0
# [12] = test system: T47D
# [13] = test system: SF-295
# [14] = test system: K562
# [15] = test system: SF-268
# [16] = test system: UO-31
# [17] = test system: SF-539
# [18] = test system: CAKI-1
# [19] = test system: MDA-MB-435
# [20] = test system: NCI-H522
# [21] = test system: HT-29
# [22] = test system: SNB-75
# [23] = test system: A498
# [24] = test system: HL-60
# [25] = test system: EKVX
# [26] = test system: KM12
# [27] = test system: A549
# [28] = test system: OVCAR-4
# [29] = test system: HCT-15
# [30] = test system: PC-3
# [31] = test system: MOLT-4
# [32] = test system: SK-MEL-28
# [33] = test system: MDA-N
# [34] = test system: NCI/ADR-RES
# [35] = test system: SW-620
# [36] = test system: M14
# [37] = test system: SNB-19
# [38] = test system: SK-OV-3
# [39] = test system: UACC-62
# [40] = test system: SK-MEL-2
# [41] = test system: NCI-H226
# [42] = test system: OVCAR-3
# [43] = test system: OVCAR-8
# [44] = test system: HOP-92
# [45] = test system: OVCAR-5
# [46] = test system: COLO 205
# [47] = test system: DU-145
# [48] = test system: U-251
# [49] = test system: LOX IMVI
# [50] = test system: Hs-578T
# [51] = test system: RXF 393
# [52] = test system: MDA-MB-231
# [53] = test system: HOP-62
# [54] = test system: IGROV-1
# [55] = test system: SR
# [56] = test system: HCT-116
# [57] = test system: Malme-3M
# [58] = test system: SN12C
structure (smiles),measurement,setting,value
COc1c(Br)cc2ccccc2c1-c1c(OC)c(Br)cc2ccccc12,GI50,[1],67.5 µM (inactive)
same,GI50,[2],> 100 µM (inactive)
same,GI50,[3],> 100 µM (inactive)
same,GI50,[4],> 100 µM (inactive)
same,GI50,[5],> 100 µM (inactive)
same,GI50,[6],> 100 µM (inactive)
same,GI50,[7],49.9 µM (inactive)
same,GI50,[8],> 100 µM (inactive)
same,GI50,[9],80.5 µM (inactive)
same,GI50,[10],> 100 µM (inactive)
same,GI50,[11],> 100 µM (inactive)
same,GI50,[12],7.01 µM (inactive)
same,GI50,[13],> 100 µM (inactive)
same,GI50,[14],38.9 µM (inactive)
same,GI50,[15],> 100 µM (inactive)
same,GI50,[16],> 100 µM (inactive)
same,GI50,[17],> 100 µM (inactive)
same,GI50,[18],> 100 µM (inactive)
same,GI50,[19],> 100 µM (inactive)
same,GI50,[20],74.6 µM (inactive)
same,GI50,[21],> 100 µM (inactive)
same,GI50,[22],> 100 µM (inactive)
same,GI50,[23],> 100 µM (inactive)
same,GI50,[24],25.6 µM (inactive)
same,GI50,[25],> 100 µM (inactive)
same,GI50,[26],79.1 µM (inactive)
same,GI50,[27],> 100 µM (inactive)
same,GI50,[28],> 100 µM (inactive)
same,GI50,[29],> 100 µM
same,GI50,[30],95.9 µM (inactive)
same,GI50,[31],6.32 µM (inactive)
same,GI50,[32],> 100 µM (inactive)
same,GI50,[33],> 100 µM (inactive)
same,GI50,[34],> 100 µM (inactive)
same,GI50,[35],> 100 µM (inactive)
same,GI50,[36],> 100 µM (inactive)
same,GI50,[37],> 100 µM (inactive)
same,GI50,[38],> 100 µM (inactive)
same,GI50,[39],> 100 µM (inactive)
same,GI50,[40],> 100 µM (inactive)
same,GI50,[41],> 100 µM (inactive)
same,GI50,[42],> 100 µM (inactive)
same,GI50,[43],> 100 µM (inactive)
same,GI50,[44],> 100 µM (inactive)
same,GI50,[45],> 100 µM (inactive)
same,GI50,[46],> 100 µM (inactive)
same,GI50,[47],> 100 µM (inactive)
same,GI50,[48],> 100 µM (inactive)
same,GI50,[49],> 100 µM (inactive)
same,GI50,[50],> 100 µM (inactive)
same,GI50,[51],> 100 µM (inactive)
same,GI50,[52],> 100 µM (inactive)
same,GI50,[53],> 100 µM (inactive)
same,GI50,[54],> 100 µM (inactive)
C/C(=C\CNc1nc(Cl)nc2[nH]cnc12)CO,GI50,[1],> 100 µM (inactive)
same,GI50,[2],> 100 µM (inactive)
same,GI50,[3],> 100 µM (inactive)
same,GI50,[4],> 100 µM (inactive)
same,GI50,[5],> 100 µM (inactive)
same,GI50,[6],> 100 µM (inactive)
same,GI50,[7],> 100 µM (inactive)
same,GI50,[8],> 100 µM (inactive)
same,GI50,[9],> 100 µM (inactive)
same,GI50,[10],> 100 µM (inactive)
same,GI50,[11],> 100 µM (inactive)
same,GI50,[12],> 100 µM (inactive)
same,GI50,[13],> 100 µM (inactive)
same,GI50,[55],> 100 µM (inactive)
same,GI50,[14],> 100 µM (inactive)
same,GI50,[15],> 100 µM (inactive)
same,GI50,[16],> 100 µM (inactive)
same,GI50,[17],> 100 µM (inactive)
same,GI50,[18],> 100 µM (inactive)
same,GI50,[19],> 100 µM (inactive)
same,GI50,[20],> 100 µM (inactive)
same,GI50,[21],> 100 µM (inactive)
same,GI50,[22],96.4 µM (inactive)
same,GI50,[56],> 100 µM (inactive)
same,GI50,[23],> 100 µM (inactive)
same,GI50,[24],> 100 µM (inactive)
same,GI50,[57],> 100 µM (inactive)
same,GI50,[25],> 100 µM (inactive)
same,GI50,[26],> 100 µM (inactive)
same,GI50,[27],> 100 µM (inactive)
same,GI50,[28],> 100 µM (inactive)
same,GI50,[30],> 100 µM (inactive)
same,GI50,[31],> 100 µM (inactive)
same,GI50,[32],> 100 µM (inactive)
same,GI50,[33],> 100 µM (inactive)
same,GI50,[34],> 100 µM (inactive)
same,GI50,[35],> 100 µM (inactive)
same,GI50,[36],> 100 µM (inactive)
same,GI50,[37],> 100 µM (inactive)
same,GI50,[38],> 100 µM (inactive)
same,GI50,[39],> 100 µM (inactive)
same,GI50,[41],> 100 µM (inactive)
same,GI50,[42],> 100 µM (inactive)
same,GI50,[43],> 100 µM (inactive)
same,GI50,[44],> 100 µM (inactive)
same,GI50,[45],> 100 µM (inactive)
same,GI50,[46],> 100 µM (inactive)
same,GI50,[47],> 100 µM (inactive)
same,GI50,[49],> 100 µM (inactive)
same,GI50,[50],> 100 µM (inactive)
same,GI50,[51],> 100 µM (inactive)
same,GI50,[52],> 100 µM (inactive)
same,GI50,[53],> 100 µM (inactive)
same,GI50,[58],> 100 µM (inactive)
same,GI50,[54],> 100 µM (inactive)
